Measurements: patent US6335031B1, “TTS containing an antioxidant” (priority 1998, dated 2002)

Key:
[1] = tolerability and absorption of Compound A from transdermal patches; assay type: in vivo
Method: The transdermal devices of the invention in general have, for example an effective contact area of pharmaceutical composition on the skin of from about 1 to about 80 square centimeters, preferably about 10 square centimeters, and are intended to be applied at intervals of about once every 1 to 7 days, preferably 1-3 days. […] Compound A may, for example be administered at a dose of 8 mg in a patch of ca. 10 cm^2, once every day. The patch may be applied, for example on the abdomen, thigh, behind an ear, or on a shoulder or upper arm.
(§1) Higher dosages are possible, for example 4.5 mg twice daily and even 6 mg twice daily. Tolerability is seen to be even better for the transdermal device, wherein 24 mg were absorbed in 24 hours.

[2] = tolerability of Compound A given orally; assay type: in vivo; conditions: oral, initial dose 1.5 mg twice a day, stepped up to 3 mg twice daily in week 2
Method: as §1

[3] = degradation testing of Compound A and of the prior-art transdermal composition; assay type: physicochemical; conditions: particularly in the presence of oxygen; prior-art composition in occlusive polymer matrix and air-tight packaging

## CCN(C)C(=O)Oc1cccc([C@H](C)N(C)C)c1 [Compound A]
[1]; transdermal device, 24 mg absorbed in 24 hours
  tolerability of transdermal device compared with oral: even better
[1]; transdermal device, in 24 hours
  amount absorbed: 24 mg
[1]; transdermal, 36 mg free base in up to 80 cm^2 of patches
  tolerability: well tolerated
[1]; transdermal, patches up to 80 cm^2 containing 36 mg compound A
  amount absorbed: 12 mg
[2]
  tolerability: well tolerated
[3]
  susceptibility to degradation: susceptible to degradation
